According to patent US6476021B1 (priority 1997, dated 2002):
Structures can show the parent of a compound that is named as a salt.

Experiments:
[1] = target: PDE type V (Canis lupus familiaris, UniProt O77746); experiment: biochemical
[2] = target: PDE type VI (Bos taurus, UniProt P11541+P23439); experiment: biochemical
[3] = rats
Source text: (§1) Eight-week-old male Wistar rats were anesthetized with intraperitoneal injection of urethane at 1 g/kg. The cervical portion was incised so that the trachea was exposed, and a polyethylene tube (SP120, Natsume) was inserted into the trachea. Then, a part of the esophagus was incised and a polyethylene tube with the same diameter was inserted into postnasal cavity, the tip was closed with absorbent cotton and glue. Leak of the drug solution from the nasoplatine was avoided by closing it with synthetic glue. Drugs were dissolved in 0.1% tartaric acid solution and administered through the nostrils at 500 μl/kg with micropipette and the nostrils were rapidly closed with glue. For the control, drugs were intravenously administered to rats. Constant volume of blood was intermittently collected from the tail vein into heparinized capillary after administration, and plasma was separated by centrifugation. Constant volume of plasma was extracted with t-butyl-methyl-ether three times and the organic phase was evaporated and dissolved in the HPLC initial phase. Constant volume of the organic phase was applied to the HPLC system equipped with an ultraviolet detector, and plasma drug concentration was determined with the reverse phase column. The time to reach the maximal concentration (Tmax), the mean residence time (MRT) and the mean absorption time (MAT) were calculated from measured values.

[4] = in vivo; details: male, Wistar, rat, plasma, inhaled or intranasal, 0.3 mg/kg
Source text: as §1

[5] = intranasal administration
[6] = target: PDE type III (Canis lupus familiaris, UniProt A0A8I3NYE0); details: read-out: Inhibition Activity IC50 Type III; PDE type III from canine aorta; 1 μM substrate
Chain of PDE type III (A0A8I3NYE0 1-1135): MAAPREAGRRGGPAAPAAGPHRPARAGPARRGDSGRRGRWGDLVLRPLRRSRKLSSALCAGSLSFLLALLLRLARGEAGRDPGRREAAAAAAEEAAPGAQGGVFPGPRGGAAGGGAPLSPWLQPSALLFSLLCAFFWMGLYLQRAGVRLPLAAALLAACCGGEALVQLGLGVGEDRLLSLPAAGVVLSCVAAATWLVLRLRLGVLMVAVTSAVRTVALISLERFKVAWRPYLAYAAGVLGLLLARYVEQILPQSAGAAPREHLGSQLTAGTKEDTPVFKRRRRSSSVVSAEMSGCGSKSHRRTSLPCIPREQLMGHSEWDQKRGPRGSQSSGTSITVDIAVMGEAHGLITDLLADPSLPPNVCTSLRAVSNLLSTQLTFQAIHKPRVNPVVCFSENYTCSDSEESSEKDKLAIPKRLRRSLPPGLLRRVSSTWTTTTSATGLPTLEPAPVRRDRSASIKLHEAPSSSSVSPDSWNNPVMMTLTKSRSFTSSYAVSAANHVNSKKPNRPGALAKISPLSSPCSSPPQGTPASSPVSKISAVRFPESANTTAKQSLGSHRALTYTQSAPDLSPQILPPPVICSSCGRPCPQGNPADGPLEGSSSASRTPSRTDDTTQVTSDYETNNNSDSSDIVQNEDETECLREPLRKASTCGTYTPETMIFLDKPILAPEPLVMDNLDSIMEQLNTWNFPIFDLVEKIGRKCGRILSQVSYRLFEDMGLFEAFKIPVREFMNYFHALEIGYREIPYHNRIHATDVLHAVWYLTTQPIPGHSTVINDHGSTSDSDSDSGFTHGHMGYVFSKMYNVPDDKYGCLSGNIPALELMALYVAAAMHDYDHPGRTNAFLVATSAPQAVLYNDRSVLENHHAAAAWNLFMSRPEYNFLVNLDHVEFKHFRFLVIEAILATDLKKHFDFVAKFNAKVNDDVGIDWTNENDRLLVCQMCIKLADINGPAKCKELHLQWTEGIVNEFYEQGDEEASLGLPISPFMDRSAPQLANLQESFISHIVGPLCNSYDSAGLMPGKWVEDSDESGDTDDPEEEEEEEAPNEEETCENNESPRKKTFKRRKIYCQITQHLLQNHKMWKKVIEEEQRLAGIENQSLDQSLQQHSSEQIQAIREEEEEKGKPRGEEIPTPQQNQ

[7] = rat, in vivo, 100 mg/kg

Chain of PDE type VI (P11541 2-856): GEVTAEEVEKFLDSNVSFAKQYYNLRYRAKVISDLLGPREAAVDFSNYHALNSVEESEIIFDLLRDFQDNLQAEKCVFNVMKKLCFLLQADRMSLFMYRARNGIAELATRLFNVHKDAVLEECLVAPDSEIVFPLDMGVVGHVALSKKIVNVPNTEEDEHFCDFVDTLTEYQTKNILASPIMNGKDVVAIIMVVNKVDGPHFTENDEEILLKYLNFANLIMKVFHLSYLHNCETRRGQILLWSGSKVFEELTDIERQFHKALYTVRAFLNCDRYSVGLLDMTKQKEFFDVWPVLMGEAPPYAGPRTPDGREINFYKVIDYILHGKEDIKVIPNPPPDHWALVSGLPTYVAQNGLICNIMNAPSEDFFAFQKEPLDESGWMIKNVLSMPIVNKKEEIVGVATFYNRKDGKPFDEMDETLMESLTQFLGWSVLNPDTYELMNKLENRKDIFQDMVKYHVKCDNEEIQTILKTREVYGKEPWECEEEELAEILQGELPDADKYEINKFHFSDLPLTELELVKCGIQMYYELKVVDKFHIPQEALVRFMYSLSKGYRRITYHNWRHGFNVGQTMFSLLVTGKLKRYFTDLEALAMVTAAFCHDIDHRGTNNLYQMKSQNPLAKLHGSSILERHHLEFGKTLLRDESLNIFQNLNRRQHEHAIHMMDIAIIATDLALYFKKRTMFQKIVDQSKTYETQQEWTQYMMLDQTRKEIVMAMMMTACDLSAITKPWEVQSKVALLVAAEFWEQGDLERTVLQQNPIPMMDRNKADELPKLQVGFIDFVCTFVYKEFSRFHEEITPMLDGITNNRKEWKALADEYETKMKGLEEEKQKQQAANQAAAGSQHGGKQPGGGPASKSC
Chain of PDE type VI (P23439 2-850): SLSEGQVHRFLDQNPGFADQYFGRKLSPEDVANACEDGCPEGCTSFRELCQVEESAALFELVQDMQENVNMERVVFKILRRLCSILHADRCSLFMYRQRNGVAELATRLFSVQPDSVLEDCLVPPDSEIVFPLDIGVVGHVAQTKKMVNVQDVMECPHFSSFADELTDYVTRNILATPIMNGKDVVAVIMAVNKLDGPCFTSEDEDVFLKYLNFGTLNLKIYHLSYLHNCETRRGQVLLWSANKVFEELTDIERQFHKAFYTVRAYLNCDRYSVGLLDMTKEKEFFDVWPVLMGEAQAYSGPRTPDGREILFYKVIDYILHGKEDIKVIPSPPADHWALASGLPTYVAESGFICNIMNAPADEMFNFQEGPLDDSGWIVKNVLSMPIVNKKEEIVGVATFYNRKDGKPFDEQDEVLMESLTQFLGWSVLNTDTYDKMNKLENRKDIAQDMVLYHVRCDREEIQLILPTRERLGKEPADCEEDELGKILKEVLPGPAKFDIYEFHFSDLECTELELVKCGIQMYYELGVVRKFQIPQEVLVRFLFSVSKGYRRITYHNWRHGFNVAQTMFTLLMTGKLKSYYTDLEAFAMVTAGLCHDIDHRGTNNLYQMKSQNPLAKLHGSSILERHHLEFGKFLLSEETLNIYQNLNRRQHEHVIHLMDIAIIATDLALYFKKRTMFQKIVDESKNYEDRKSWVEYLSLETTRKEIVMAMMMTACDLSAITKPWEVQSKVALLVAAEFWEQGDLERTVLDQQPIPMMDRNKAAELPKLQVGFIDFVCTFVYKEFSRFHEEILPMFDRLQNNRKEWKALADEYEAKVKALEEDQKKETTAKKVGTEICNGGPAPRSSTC

SMILES | melting point | also measured
O=c1c(Cc2cccnc2)cn2c3cc(Br)ccc3c(=O)c3cc(OCc4cccnc4)cc1c32 [Example 35, 10-bromo-2-(3-pyridylmethyl)-5-(3-pyridylmethyloxy)-3H,7H-pyrido[3,2,1-de]acridin-3,7-dione] | 262.4 to 264.6 °C | IC50 [1]: 1.8 nM; IC50 [2]: 15 nM
COc1cc2c3c(c1)c(=O)c(Cc1cccnc1)cn3-c1cc(Br)ccc1O2 | 277.1 to 280.3 °C | 
COc1cc2c3c(c1)c(=O)c(C)cn3-c1cc(Br)ccc1S2 | 231.7 to 233.7 °C | 
O=c1c(Cc2cccnc2)cn2c3c(cc(OCCN4CCCCC4)cc13)Sc1ccc(Br)cc1-2 [Example 50] | 166.5 to 169 °C | 
Cc1cn2c3c(cc(OCCCO)cc3c1=O)Sc1ccc(Br)cc1-2 | 188.9 to 197.8 °C | 
CC(C)N(CCOc1cc2c3c(c1)c(=O)c(Cc1cccnc1)cn3-c1cc(Br)ccc1S2)C(C)C [Example 51] |  | IC50 [1]: 11 nM; IC50 [2]: 180 nM
COc1cc2c3c(c1)c(=O)c(Cc1cncnc1)cn3-c1cc(Br)ccc1S2 | 206.6 to 210.7 °C | 
O=c1c(Cc2ccccc2)cn2c3c(cc(O)cc13)Sc1ccc(Br)cc1-2 | 268.1 to 274.3 °C | 
O=c1c(Cc2cccnc2)cn2c3c(cc(OCCCO)cc13)Sc1cc(Br)ccc1-2 | 215.7 to 218.4 °C | 
O=c1ccn2c3ccc(Cl)cc3c3cncc1c32 | 280 °C (dec.) | 
CS(=O)(=O)O.CS(=O)(=O)O.O=c1c(Cc2cccnc2)cn2c3c(cc(OCc4cccnc4)cc13)Sc1ccc(Br)cc1-2 [Example 81, 10-bromo-2-(3-pyridylmethyl)-5-(3-pyridylmethyloxy)-3H-pyrido[3,2,1-kl]phenothiazin-3-one dimethanesulfonate] | 238.7 to 242.3 °C | absorption by intranasal administration [3]: rapid and effective absorption; Tmax and MRT in comparison with oral administration ([3]; intranasal administration): shortened; duration ([3]; intranasal administration): proper duration; first-pass effect ([3]; intranasal administration): no first-pass effect; MAT ([3]; intranasal administration, dose 0.3 mg/kg): 0.2 ˜ 0.3 hr; MRT [4]: 48 to 60 min; Tmax [4]: 12 to 30 min
COc1cc2c3c(c1)c(=O)c(Cc1cccnc1)cn3-c1cc(Br)ccc1S2 | 185.7 to 187.4 °C | 
O=c1c(Cc2cccnc2)cn2c3c(cc(O)cc13)Sc1ccc(Br)cc1-2 | 297.4 °C (dec.) | 
O=c1c(Cc2cccnc2)cn2c3c(cc(OCc4cccnc4)cc13)Sc1ccc(Br)cc1-2 [Example 39, 10-bromo-2-(3-pyridylmethyl)-5-(3-pyridylmethyloxy)-3H-pyrido[3,2,1-kl]phenothiazin-3-one] | 170.8 to 172.1 °C | abnormalities in nasal mucosa during the experimental period [5]: no abnormalities; irritativeness from the observation at drug administration [5]: no irritativeness; IC50 [1]: 3.8 nM; IC50 [2]: 61 nM
O=c1c(Cc2ccccc2)cn2c3c(cc(OCCCO)cc13)Sc1ccc(Br)cc1-2 | 152 to 168.3 °C | 
O=c1ccn2c3c(cc(Cl)cc13)Sc1cc(Cl)ccc1-2 | > 300 °C | 
O=c1ccn2c3c(cc(Cl)cc13)Oc1cc(Cl)ccc1-2 | > 300 °C | 
CCCc1nn(C)c2c(=O)[nH]c(-c3cc(S(=O)(=O)N4CCN(C)CC4)ccc3OCC)nc12 [Sildenafil, 5-[2-ethoxy-5-(4-methylpiperazin-1-ylsulphonyl)phenyl]-1-methyl-3-propyl-6,7-dihydro-1H-pyrazolo[4,3-d]pyrimidin-7-one citrate] |  | IC50 [6]: 13 µM

SMILES | melting point | also measured
O=c1c(Cc2cccnc2)cn2c3c(cc(OCc4ccccn4)cc13)Sc1ccc(Br)cc1-2 [Example 44, 10-bromo-2-(3-pyridylmethyl)-5-(2-pyridylmethyloxy)-3H-pyrido[3,2,1-kl]phenothiazin-3-one] | 94.6 to 96.4 °C | 
O=c1c(Cc2cccnc2)cn2c3c(cc(OCc4ccncc4)cc13)Sc1ccc(Br)cc1-2 [Example 43, 10-bromo-2-(3-pyridylmethyl)-5-(4-pyridylmethyloxy)-3H-pyrido[3,2,1-kl]phenothiazin-3-one] | 194.2 to 196.1 °C | IC50 [1]: 2.8 nM; IC50 [2]: 36 nM
O=c1c(Cc2cccnc2)cn2c3cc(Br)ccc3c(=O)c3cc(OCCCO)cc1c32 [Example 34, 10-bromo-5-(3-hydroxypropyloxy)-2-(3-pyridylmethyl)-3H,7H-pyrido[3,2,1-de]acridin-3,7-dione] | 165 °C (dec.) | 
CC(=O)N1c2ccccc2-n2ccc(=O)c3cccc1c32 | 275 °C (dec.) | 
COc1cc2c3c(c1)c(=O)c(Cc1ccccc1)cn3-c1cc(Br)ccc1S2 | 218.1 to 219.3 °C | 
O=c1c(Cc2cccnc2)cn2c3c(cccc13)Oc1ccccc1-2 [Example 4, 2-(3-pyridylmethyl)-3H-pyrido[3,2,1-kl]phenoxazin-3-one] |  | body weights and general symptoms [7]: nothing abnormal; death of animals until the next day after the end of administration [7]: none of the animals were found to be dead
O=c1ccn2c3cnccc3c3cccc1c32 | 211.3 °C (dec.) | 
COc1cc2c(=O)c(Cc3cccnc3)cn3c4cc(Br)ccc4c(=O)c(c1)c23 | 247.5 to 251.1 °C | 
O=c1c(Cc2cccnc2)cn2c3ccccc3c(=O)c3cccc1c32 [Example 18, 2-(3-pyridylmethyl)-3H,7H-pyrido[3,2,1-de]acridin-3,7-dione] |  | body weights and general symptoms [7]: nothing abnormal; death of animals until the next day after the end of administration [7]: none of the animals were found to be dead
O=c1c(Cc2cccnc2)cn2c3c(cc(OCCCO)cc13)Sc1ccc(Br)cc1-2 | 189.1 to 191.3 °C | 
Cc1cn2c3c(cc(O)cc3c1=O)Sc1ccc(Br)cc1-2 | > 300 °C | 
O=c1ccn2c3c(cccc13)Nc1ccccc1-2 [Example 14, 3H,7H-pyrido[3,2,1-depphenazin-3-one] |  | body weights and general symptoms [7]: nothing abnormal; death of animals until the next day after the end of administration [7]: none of the animals were found to be dead
O=c1c(Cc2cccnc2)cn2c3cc(Br)ccc3c(=O)c3cc(O)cc1c32 | > 300 °C | 
CN1c2ccccc2-n2ccc(=O)c3cccc1c32 | 232.8 to 234.5 °C | 
COc1cc2c3c(c1)c(=O)c(Cc1cccnc1)cn3-c1ccc(Br)cc1S2 | 137.3 to 138.1 °C | 
CN(C)CCCOc1cc2c3c(c1)c(=O)c(Cc1cccnc1)cn3-c1cc(Br)ccc1S2 | 160.3 to 163.3 °C | 
CC(=O)N1c2ccccc2-n2cc(Cc3ccccc3)c(=O)c3cccc1c32 [Example 10, 7-acetyl-2-benzyl-3H,7H-pyrido[3,2,1-de]phenazin-3-one] |  | body weights and general symptoms [7]: nothing abnormal; death of animals until the next day after the end of administration [7]: none of the animals were found to be dead
